Columns and labels:
emotional pain = experiment: Migraine open-label pilot study: emotional pain on 4-point scale (emotional pain-free, emotional pain intensity); type: in vivo, human; conditions: for Change in emotional pain-free / Change in emotional pain-intensity: baseline to 24 h; for Emotional pain-intensity at 24 hours post-dosing / Emotional pain-intensity at baseline: sum of severity of all patients
Description: Sixteen unique patients were enrolled in an open phase pilot study for the acute treatment of migraine attacks, insomnia, and emotional pain. Of the sixteen patients, eleven were evaluated for one migraine attack, one for two attacks, two for four attacks, one for six attacks, and one for fourteen attacks. A total of forty-one […] treatments were evaluated. Patients received a single dose of one of the following treatment options:
The majority of the patients remained in the clinic for observation for 2 hours after dosing. They completed headache diary assessments immediately before and after dosing at time points: 7, 15, and 30 minutes; and 1, 1.5, 2, 3, 6, 12, 24, and 48 hours. Headache pain was assessed on a 4-point scale (0=none; 1=mild; 2=moderate; 3=severe). The assessment of photophobia, phonophobia, nausea, and neck/shoulder pain was assessed as present or absent. The assessment of emotional pain was recorded on a 4-point scale (0=none, 1=mild, 2=moderate, 3=severe). The assessment of difficulty sleeping or falling asleep (insomnia) was assessed on a 4-point scale (0=none, 1=mild, 2=moderate, 3=severe) at baseline, for the night before treatment and for the following nights at 24, and 48 hours. Patients recorded side effects severity at each time point. Patients recorded the time of the first rescue medication dose and all additional headache medications used within 48 hours. Patients were required to stay awake to record their assessments in the first 2 hours, sleeping was permitted thereafter. While asleep, assessments were completed according to patients' best estimation. For data analysis, it was assumed that a migraine attack is a unique patient. Patients were asked to specify (yes or no answer) to whether they experienced emotional pain symptoms such as: hurt feelings, sadness, fear, or anger. Patients who replied positively to having emotional pain were asked to specify the cause into one of the following options: relationship, work/school, money/debt, health, or loss/grief.

[1] = tested on: patient with lower back and leg pain and emotional pain due to separation from a child; experiment: Example 12 case study, patient diary
[2] = 24 hours after dosing, naltrexone/acetaminophen 2.25 mg/325 mg (N=21), naltrexone 2.25 mg (N=9)
[3] = NTX/APAP 2.25 mg/325 mg, NTX 2.25 mg
[4] = NTX/APAP 3.25 mg/325 mg, NTX 3.25 mg
[5] = Ibuprofen 800 mg T.I.D. PRN 2006-2010, Naltrexone 2.25 mg Q.I.D./Clonidine 0.025 mg Q.I.D. 2010-2015, APAP 325 mg Q.I.D. Jun. 29-Jul. 6, 2015, Naltrexone 2.5 mg Q.I.D. to Jul. 8, 2015, Naltrexone 2.25 mg/APAP 325 mg Q.I.D. Jul. 9-Oct. 4, 2015

## O=C1CC[C@@]2(O)[C@H]3Cc4ccc(O)c5c4[C@@]2(CCN3CC2CC2)[C@H]1O5 [naltrexone]
Emotional pain; 24-hour change from baseline, naltrexone 2.25 mg (n=9)
  emotional pain intensity decreased by: 55%
Emotional pain; 7 min, NTX/APAP 2.25 mg/325 mg, NTX 2.25 mg
  Emotional pain-free: 1 (33) n (%)
Emotional pain; 7 min, NTX/APAP 3.25 mg/325 mg, NTX 3.25 mg
  Emotional pain-free: 1 n (%)
Emotional pain; 7 min, NTX/APAP 5 mg/325 mg, NTX 5 mg
  Emotional pain-free: 0 n (%)
Emotional pain; 7 min, all doses combined
  Emotional pain-free: 2 (33) n (%)
Emotional pain; 15 min, NTX/APAP 2.25 mg/325 mg, NTX 2.25 mg
  Emotional pain-free: 7 (77) n (%)
Emotional pain; 15 min, NTX/APAP 3.25 mg/325 mg, NTX 3.25 mg
  Emotional pain-free: 2 n (%)
Emotional pain; 15 min, NTX/APAP 5 mg/325 mg, NTX 5 mg
  Emotional pain-free: 0 n (%)
Emotional pain; 15 min, NTX/APAP […]325 mg, NTX 1.5 mg
  Emotional pain-free: 2 n (%)
Emotional pain; 15 min, all doses combined
  Emotional pain-free: 11 (69) n (%)
Emotional pain; 30 min, NTX/APAP 2.25 mg/325 mg, NTX 2.25 mg
  Emotional pain-free: 8 (89) n (%)
Emotional pain; 30 min, NTX/APAP 3.25 mg/325 mg, NTX 3.25 mg
  Emotional pain-free: 2 (66) n (%)
Emotional pain; 30 min, NTX/APAP 5 mg/325 mg, NTX 5 mg
  Emotional pain-free: 1 (100) n (%)
Emotional pain; 30 min, NTX/APAP […]325 mg, NTX 1.5 mg
  Emotional pain-free: 2 (66) n (%)
Emotional pain; 30 min, all doses combined
  Emotional pain-free: 13 (87) n (%)
Emotional pain; 1 h, NTX/APAP 2.25 mg/325 mg, NTX 2.25 mg
  Emotional pain-free: 9 (100) n (%)
Emotional pain; 1 h, NTX/APAP 3.25 mg/325 mg, NTX 3.25 mg
  Emotional pain-free: 2 (66) n (%)
Emotional pain; 1 h, NTX/APAP 5 mg/325 mg, NTX 5 mg
  Emotional pain-free: 1 n (%)
Emotional pain; 1 h, NTX/APAP […]325 mg, NTX 1.5 mg
  Emotional pain-free: 2 (66) n (%)
Emotional pain; 1 h, all doses combined
  Emotional pain-free: 14 (88) n (%)
Emotional pain; 90 min, NTX/APAP 2.25 mg/325 mg, NTX 2.25 mg
  Emotional pain-free: 9 (100) n (%)
Emotional pain; 90 min, NTX/APAP 3.25 mg/325 mg, NTX 3.25 mg
  Emotional pain-free: 3 (100) n (%)
Emotional pain; 90 min, NTX/APAP 5 mg/325 mg, NTX 5 mg
  Emotional pain-free: 1 (100) n (%)
Emotional pain; 90 min, NTX/APAP […]325 mg, NTX 1.5 mg
  Emotional pain-free: 3 (100) n (%)
Emotional pain; 90 min, all doses combined
  Emotional pain-free: 16 (100) n (%)
Emotional pain; 2 h, NTX/APAP 2.25 mg/325 mg, NTX 2.25 mg
  Emotional pain-free: 9 (100) n (%)
Emotional pain; 2 h, NTX/APAP 3.25 mg/325 mg, NTX 3.25 mg
  Emotional pain-free: 3 (100) n (%)
Emotional pain; 2 h, NTX/APAP 5 mg/325 mg, NTX 5 mg
  Emotional pain-free: 1 n (%)
Emotional pain; 2 h, NTX/APAP […]325 mg, NTX 1.5 mg
  Emotional pain-free: 3 (100) n (%)
Emotional pain; 2 h, combined doses
  Emotional pain-free: 16 (100)
Emotional pain; 3 h, NTX/APAP 2.25 mg/325 mg, NTX 2.25 mg
  Emotional pain-free: 9 (100) n (%)
Emotional pain; 3 h, NTX/APAP 3.25 mg/325 mg, NTX 3.25 mg
  Emotional pain-free: 3 (100) n (%)
Emotional pain; 3 h, NTX/APAP 5 mg/325 mg, NTX 5 mg
  Emotional pain-free: 1 (100) n (%)
Emotional pain; 3 h, NTX/APAP […]325 mg, NTX 1.5 mg
  Emotional pain-free: 3 (100) n (%)
Emotional pain; 3 h, combined doses
  Emotional pain-free: 16 (100) n (%)
Emotional pain; 4 h, NTX/APAP 2.25 mg/325 mg, NTX 2.25 mg
  Emotional pain-free: 9 (100) n (%)
Emotional pain; 4 h, NTX/APAP 3.25 mg/325 mg, NTX 3.25 mg
  Emotional pain-free: 3 (100) n (%)
Emotional pain; 4 h, NTX/APAP 5 mg/325 mg, NTX 5 mg
  Emotional pain-free: 1 (100) n (%)
Emotional pain; 4 h, NTX/APAP […]325 mg, NTX 1.5 mg
  Emotional pain-free: 3 (100) n (%)
Emotional pain; 4 h, combined doses
  Emotional pain-free: 15 (94) n (%)
Emotional pain; 6 h, NTX/APAP 2.25 mg/325 mg, NTX 2.25 mg
  Emotional pain-free: 9 (100) n (%)
Emotional pain; 6 h, NTX/APAP 3.25 mg/325 mg, NTX 3.25 mg
  Emotional pain-free: 3 (100) n (%)
Emotional pain; 6 h, NTX/APAP 5 mg/325 mg, NTX 5 mg
  Emotional pain-free: 1 (100) n (%)
Emotional pain; 6 h, NTX/APAP […]325 mg, NTX 1.5 mg
  Emotional pain-free: 3 (100) n (%)
Emotional pain; 6 h, combined doses
  Emotional pain-free: 15 (94) n (%)
Emotional pain; 12 h, NTX/APAP 2.25 mg/325 mg, NTX 2.25 mg
  Emotional pain-free: 9 (100) n (%)
Emotional pain; 12 h, NTX/APAP 3.25 mg/325 mg, NTX 3.25 mg
  Emotional pain-free: 3 (100) n (%)
Emotional pain; 12 h, NTX/APAP 5 mg/325 mg, NTX 5 mg
  Emotional pain-free: 1 (100) n (%)
Emotional pain; 12 h, NTX/APAP […]325 mg, NTX 1.5 mg
  Emotional pain-free: 3 (100) n (%)
Emotional pain; 12 h, combined doses
  Emotional pain-free: 15 (94) n (%)
Emotional pain; 24 h, NTX/APAP 2.25 mg/325 mg, NTX 2.25 mg
  Emotional pain-free: 9 (100) n (%)
Emotional pain; 24 h, NTX/APAP 3.25 mg/325 mg, NTX 3.25 mg
  Emotional pain-free: 3 (100) n (%)
Emotional pain; 24 h, NTX/APAP 5 mg/325 mg, NTX 5 mg
  Emotional pain-free: 1 (100) n (%)
Emotional pain; 24 h, NTX/APAP […]325 mg, NTX 1.5 mg
  Emotional pain-free: 3 (100) n (%)
Emotional pain; 24 h, combined doses
  Emotional pain-free: 15 (94)
Emotional pain; 24 hours after dosing, NTX/APAP 2.25 mg/325 mg, NTX 2.25 mg
  Emotional Pain-free at 24 hours after dosing: 9 (100) n (%)
Emotional pain; 24 hours after dosing, NTX/APAP 3.25 mg/325 mg, NTX 3.25 mg
  Emotional Pain-free at 24 hours after dosing: 3 n (%)
Emotional pain; 24 hours after dosing, NTX/APAP 5 mg/325 mg, NTX 5 mg
  Emotional Pain-free at 24 hours after dosing: 1 n (%)
Emotional pain; 24 hours after dosing, NTX/APAP […]325 mg, NTX 1.5 mg
  Emotional Pain-free at 24 hours after dosing: 3 n (%)
Emotional pain; [2]
  emotional pain intensity change from baseline: −55%
  emotional pain-free change from baseline: 33%
Emotional pain; 48 h, NTX/APAP 2.25 mg/325 mg, NTX 2.25 mg
  Emotional pain-free: 9 (100)
Emotional pain; 48 h, NTX/APAP 3.25 mg/325 mg, NTX 3.25 mg
  Emotional pain-free: 3 (100)
Emotional pain; 48 h, NTX/APAP 5 mg/325 mg, NTX 5 mg
  Emotional pain-free: 1 (100)
Emotional pain; 48 h, NTX/APAP […]325 mg, NTX 1.5 mg
  Emotional pain-free: 3 (100)
Emotional pain; 48 h, combined doses
  Emotional pain-free: 13 (100) n (%)
Emotional pain; [3]
  Change in emotional pain-free: +3 (+33) n (%)
  Change in emotional pain-intensity: −5 (−55) n (%)
  Emotional pain-free at baseline: 6 (66) n (%)
  Emotional pain-intensity at 24 hours post-dosing: 0 n (%)
  Emotional pain-intensity at baseline: 5 (55) n (%)
Emotional pain; [4]
  Change in emotional pain-intensity: −1 (−100) n (%)
  Emotional pain-free at baseline: 2 n (%)
  Emotional pain-intensity at 24 hours post-dosing: 0 n (%)
  Emotional pain-intensity at baseline: 1 n (%)
Emotional pain; NTX/APAP 5 mg/325 mg, NTX 5 mg
  Change in emotional pain-intensity: −2 (−100) n (%)
  Emotional pain-free at baseline: 0 n (%)
  Emotional pain-intensity at 24 hours post-dosing: 0 n (%)
  Emotional pain-intensity at baseline: 2 n (%)
Emotional pain; NTX/APAP […]325 mg, NTX 1.5 mg
  Change in emotional pain-free: +1 n (%)
  Emotional pain-free at baseline: 2 n (%)
  Emotional pain-intensity at 24 hours post-dosing: 0 n (%)
  Emotional pain-intensity at baseline: 2 n (%)
[1]; [5]
  API, average pain intensity (0-10 NRS): 4
  Insomnia (0-10 NRS): 6.5
  PRSI, Pain Related Sleep Interference (0-10 NRS): 5.5
  WEP, Worst Emotional Pain (0-10 NRS): 5.5
  WPI, Worst Pain Intensity (0-10 NRS): 5
[1]; Naltrexone 2.25 mg Q.I.D./Clonidine 0.025 mg Q.I.D. 2010-2015, APAP 325 mg Q.I.D. Jun. 29-Jul. 6, 2015, Naltrexone 2.5 mg Q.I.D. to Jul. 8, 2015, Naltrexone 2.25 mg/APAP 325 mg Q.I.D. Jul. 9-Oct. 4, 2015
  PGIC (1-7 Likert): 6
[1]; naltrexone/clonidine, acetaminophen 325 mg four times daily 5 days, naltrexone alone 12 days, naltrexone 2.25 mg and acetaminophen 325 mg four times daily almost three months
  emotional pain due to separation from child (patient report): same level of emotional pain

— US11058680B2, “Combinations of opioid/TLR4 antagonists and acetaminophen for use in the treatment of emotional pain and insomnia” (Allodynic Threapeutics, LLC, priority 2016, dated 2021)
